This passage reports TGI results from PubChem BioAssay (NCI).

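Dose response: 5 concentrations. Exposure: 48 h. Format: 96-well plates. Endpoint: linear interpolation; highest concentration if not reached. TGI denotes the concentration required for complete inhibition of growth.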

Among the test systems are 786-0 renal; CCRF-CEM leukemia; HOP-62 NSCLC; MOLT-4 leukemia; SK-MEL-5 melanoma; U251 CNS.
Test in all cases: DTP human tumour cell line panel, 48 h

For `CCOC(=O)C1C(c2ccc3c(c2)OCO3)c2c([nH][nH]c2=O)CC1(C)O` (stereo not drawn), the TGI in the assay with 786-0 renal, in the assay on CCRF-CEM leukemia, in the assay on HOP-62 NSCLC, in the assay with MOLT-4 leukemia, with SK-MEL-5 melanoma and in the assay with U251 CNS was greater than 100 µM in each case.
For the compound `O=C(CCCN1CCC2(CC1)CC(c1ccccc1)OC2=O)c1ccc(F)cc1` (stereo not drawn), the TGI with 786-0 renal is 67.5 µM; in the assay on CCRF-CEM leukemia, greater than 100 µM; in the assay with HOP-62 NSCLC, 73.7 µM; in the assay on MOLT-4 leukemia it was 62.1 µM; in the assay on SK-MEL-5 melanoma it was 36.1 µM; in the assay on U251 CNS it was greater than 100 µM.
With `Oc1ccc(-c2cc(-c3cc(-c4ccc(O)cc4)no3)on2)cc1`, the TGI in the assay on 786-0 renal was greater than 100 µM; with CCRF-CEM leukemia, greater than 100 µM; in the assay on HOP-62 NSCLC it was greater than 100 µM; in the assay on MOLT-4 leukemia, 9.52 µM; with SK-MEL-5 melanoma, greater than 100 µM; with U251 CNS, greater than 100 µM.
As to `CO/C(=N\N=C\c1ccc(OC)c(OC)c1)c1ccncc1`, the TGI in the assay with 786-0 renal, in the assay on CCRF-CEM leukemia, with HOP-62 NSCLC, in the assay with MOLT-4 leukemia, in the assay with SK-MEL-5 melanoma and in the assay on U251 CNS was greater than 10 µM each time.
For `COC(=O)[C@@H]1[C@H](OC(C)=O)CCC2[C@@]3(C[C@@H](c4ccoc4)O[C@@H]3OC)[C@H](C)CC[C@]21C(=O)OC` (stereo partly drawn), the TGI with 786-0 renal, in the assay with CCRF-CEM leukemia, with MOLT-4 leukemia, in the assay with SK-MEL-5 melanoma and with U251 CNS was greater than 25 µM in each case.
Turning to `COc1ccc(C2SCC(=O)N2c2ccc(-c3ccc(-n4c(-c5ccccc5)nc5ccccc5c4=O)cc3)cc2)cc1OC` (stereo not drawn), the TGI in the assay on 786-0 renal was greater than 100 µM; with CCRF-CEM leukemia it was 92.5 µM; in the assay with HOP-62 NSCLC it was 37.6 µM; with MOLT-4 leukemia, greater than 100 µM; with U251 CNS it was greater than 100 µM.
As to `COC(=O)[C@H](CCSC)NC(=O)N[C@H](C)c1ccccc1`, the TGI in the assay on 786-0 renal, in the assay on CCRF-CEM leukemia, with HOP-62 NSCLC, in the assay with MOLT-4 leukemia, in the assay on SK-MEL-5 melanoma and in the assay on U251 CNS was greater than 100 µM each time.
As to `CCOC(=O)/C(C=Nc1c(C)n(C)n(-c2ccccc2)c1=O)=C(/C)O`, the TGI in the assay on 786-0 renal, with CCRF-CEM leukemia, in the assay with MOLT-4 leukemia, in the assay with SK-MEL-5 melanoma and with U251 CNS was greater than 100 µM throughout.
Consider `CCN(CC)CC1CCCCN1CC(=O)N1c2ccccc2C(=O)Nc2cccnc21` (stereo not drawn), for which the TGI with 786-0 renal was greater than 100 µM; in the assay on CCRF-CEM leukemia it was 38.5 µM; in the assay on HOP-62 NSCLC it was greater than 100 µM; in the assay with MOLT-4 leukemia, 55.5 µM; in the assay on SK-MEL-5 melanoma, greater than 100 µM; with U251 CNS it was greater than 100 µM.
Consider `CC(C)(C)OC(=O)NC(Cc1ccccc1)OCc1ccccc1` (stereo not drawn), for which the TGI in the assay on 786-0 renal was 31 µM; with HOP-62 NSCLC, 37.8 µM; in the assay with MOLT-4 leukemia, 77.6 µM; in the assay on SK-MEL-5 melanoma it was 31 µM; in the assay on U251 CNS, greater than 10 µM.
`CCOC(=O)C1=NOC2(C=C(Br)C(=O)C(Br)=C2)C1`: the TGI worked out at 1.76 µM in the assay with 786-0 renal; 16.2 µM in the assay on HOP-62 NSCLC; 0.304 µM in the assay with MOLT-4 leukemia; 21.7 µM with SK-MEL-5 melanoma; 26.3 µM in the assay with U251 CNS.
In the case of `O=C1CCCN1C(=O)CS(=O)(=O)c1ccccc1`, the TGI in the assay with 786-0 renal, with CCRF-CEM leukemia, in the assay on HOP-62 NSCLC, in the assay on MOLT-4 leukemia, in the assay on SK-MEL-5 melanoma and in the assay on U251 CNS was greater than 100 µM each time.
`C=CCC1(OCc2ccccc2)C(=O)C(=O)OC1C1COC(C)(C)O1` (stereo not drawn): the TGI in the assay on 786-0 renal, in the assay on CCRF-CEM leukemia, with HOP-62 NSCLC, in the assay on MOLT-4 leukemia, with SK-MEL-5 melanoma and with U251 CNS was greater than 100 µM in each case.
As to `CNC(=O)C1(N)c2ccccc2C=Cc2ccccc21`, the TGI in the assay with 786-0 renal, in the assay on CCRF-CEM leukemia, in the assay on HOP-62 NSCLC, in the assay with MOLT-4 leukemia, with SK-MEL-5 melanoma and in the assay with U251 CNS was greater than 100 µM throughout.
As for `C=CC[C@@H](N)C(=O)N(C)[C@@H](C)[C@@H](O)c1ccccc1`, the TGI in the assay with 786-0 renal, in the assay with CCRF-CEM leukemia, in the assay with HOP-62 NSCLC, in the assay with MOLT-4 leukemia, in the assay with SK-MEL-5 melanoma and in the assay with U251 CNS was greater than 100 µM throughout.
On to `CC(=O)Nc1ccc(C(O)/C(=N/N)c2nc3ccc(Cl)cc3[nH]c2=O)cc1` (stereo not drawn), for which the TGI in the assay with 786-0 renal, with CCRF-CEM leukemia, with HOP-62 NSCLC, in the assay with MOLT-4 leukemia, in the assay on SK-MEL-5 melanoma and in the assay on U251 CNS was greater than 100 µM each time.
Turning to `Cc1cc(C)c(-n2[nH]c(=O)n(C)c2=O)c(C)c1`, the TGI in the assay on 786-0 renal, with CCRF-CEM leukemia, with MOLT-4 leukemia, in the assay with SK-MEL-5 melanoma and in the assay with U251 CNS was greater than 100 µM throughout.
`O=c1[nH]cc(-c2c[nH]c3ccccc23)nc1-c1c[nH]c2ccccc12`: the TGI with 786-0 renal was determined as 23.5 µM; in the assay with HOP-62 NSCLC, 27.3 µM; in the assay with SK-MEL-5 melanoma, 26.1 µM; in the assay on U251 CNS it was 70.8 µM.
Regarding `O=[N+]([O-])c1cccc2nnccc12`, the TGI in the assay with 786-0 renal is 50.4 µM; in the assay with MOLT-4 leukemia, greater than 100 µM; in the assay on SK-MEL-5 melanoma it was 27 µM; with U251 CNS it was greater than 100 µM.
Consider `CCC(CCCN)Nc1cc(OC)cc2c(C)ccnc12` (stereo not drawn), for which the TGI in the assay on 786-0 renal was found to be 28.8 µM; in the assay on CCRF-CEM leukemia, 52.6 µM; in the assay with HOP-62 NSCLC, 29.2 µM; in the assay with MOLT-4 leukemia it was 40 µM; in the assay with SK-MEL-5 melanoma, 31.6 µM.
Consider `CCC(C=O)P1(=O)OC(C)(C)CN1C(C)(C)C` (stereo not drawn), for which the TGI with 786-0 renal, in the assay on HOP-62 NSCLC, in the assay with SK-MEL-5 melanoma and with U251 CNS was greater than 100 µM each time.
As for `CC1=NC(=Cc2cccc(Cl)c2)C(=O)N1n1c(-c2ccccc2)nc2ccccc2c1=O`, the TGI in the assay on 786-0 renal is greater than 100 µM; in the assay with CCRF-CEM leukemia, greater than 100 µM; in the assay on HOP-62 NSCLC, 55.2 µM; with MOLT-4 leukemia, 98.3 µM; with SK-MEL-5 melanoma it was greater than 100 µM.
